Measured values taken from patent publication US9434711B2 (Janssen Pharmaceutica, NV, priority 2007, dated 2016).

Target: canine TRPM8 (Canis lupus familiaris, UniProt Q1A7N1)
Experiment: In Vitro Canine TRPM8 Functional Assay (Ca2+ fluorescence, icilin activation)
Format: cell-based
Conditions: for IC50: HEK293 cells stably expressing canine TRPM8, icilin activation, eight-point dose-response, read-out: IC50; for inhibition at 0.2 µM: compound at 0.2 μM, read-out: % Inh @ 0.2
Procedure, shortened: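 Eight-point dose-response curves, each point averaging quadruplicate wells, gave EC50 or IC50. Canine TRPM8-expressing HEK293 cells, dye-loaded (Calcium 3), were pre-exposed 5 min to compound, then challenged with icilin at roughly EC80; intracellular Ca2+ read by FLIPR or FDSS fluorescence.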

[1] = canine TRPM8, icilin activation

canine TRPM8, sequence (Q1A7N1 1-1104): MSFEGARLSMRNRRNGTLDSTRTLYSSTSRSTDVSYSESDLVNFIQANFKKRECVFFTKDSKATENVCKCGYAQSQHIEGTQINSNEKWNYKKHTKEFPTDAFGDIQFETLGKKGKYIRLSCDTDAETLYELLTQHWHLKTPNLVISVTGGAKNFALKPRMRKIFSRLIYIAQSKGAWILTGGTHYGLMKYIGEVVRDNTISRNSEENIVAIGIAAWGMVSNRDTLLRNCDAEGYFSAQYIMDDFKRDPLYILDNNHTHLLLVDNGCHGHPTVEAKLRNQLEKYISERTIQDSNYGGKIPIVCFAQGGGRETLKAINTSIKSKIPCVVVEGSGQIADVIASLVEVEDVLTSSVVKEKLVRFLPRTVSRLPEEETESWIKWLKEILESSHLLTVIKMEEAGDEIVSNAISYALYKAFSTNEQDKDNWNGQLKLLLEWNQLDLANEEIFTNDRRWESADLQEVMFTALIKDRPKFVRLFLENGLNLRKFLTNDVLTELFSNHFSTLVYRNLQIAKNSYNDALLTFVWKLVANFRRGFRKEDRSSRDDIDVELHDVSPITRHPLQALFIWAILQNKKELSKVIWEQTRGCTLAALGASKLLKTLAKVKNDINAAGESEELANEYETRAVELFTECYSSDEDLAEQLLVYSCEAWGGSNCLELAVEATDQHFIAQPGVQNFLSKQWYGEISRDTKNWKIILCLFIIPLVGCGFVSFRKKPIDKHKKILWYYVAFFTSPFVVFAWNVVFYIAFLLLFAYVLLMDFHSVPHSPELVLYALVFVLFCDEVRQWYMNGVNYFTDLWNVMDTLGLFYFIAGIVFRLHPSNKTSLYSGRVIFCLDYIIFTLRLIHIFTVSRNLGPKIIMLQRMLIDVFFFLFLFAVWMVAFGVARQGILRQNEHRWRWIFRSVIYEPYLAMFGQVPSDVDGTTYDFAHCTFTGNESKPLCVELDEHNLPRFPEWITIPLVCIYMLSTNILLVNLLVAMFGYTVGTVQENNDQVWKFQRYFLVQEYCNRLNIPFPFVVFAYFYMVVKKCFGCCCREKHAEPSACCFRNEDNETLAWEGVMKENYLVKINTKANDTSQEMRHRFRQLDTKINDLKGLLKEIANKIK

Compound	IC50	inhibition at 0.2 µM [1]	% Inh @ 0.5 (μM) (compound at 0.5 μM, canine TRPM8, icilin activation)
CCS(=O)(=O)N(CC(F)F)c1sc2ccccc2c1Br [Compound 263, N-(3-Bromo-benzo[b]thiophen-2-yl)-N-(2,2-difluoro-ethyl)-ethanesulfonamide]	203 nM	52%	–
N-(3,4-Difluoro-benzyl)-N-thieno[3,2-b]pyridin-2-yl-benzenesulfonamide [Compound 146]	48 nM	–	97%
Nc1ccc(S(=O)(=O)N(CCCCC(F)(F)F)c2sc3ccccc3c2Cl)cc1Cl [Compound 667, 4-Amino-3-chloro-N-(3-chloro-benzo[b]thiophen-2-yl)-N-(5,5,5-trifluoro-pentyl)-benzenesulfonamide]	30.1 nM	103%	–
CC(C)c1c(N(Cc2ccc(F)c(C(F)(F)F)c2)S(=O)(=O)c2ccccc2)sc2ccccc12 [Compound 547, N-(4-Fluoro-3-trifluoromethyl-benzyl)-N-(3-isopropyl-benzo[b]thiophen-2-yl)-benzenesulfonamide]	7.4 nM	105%	–
Nc1ccc(S(=O)(=O)N(CCC(F)(F)F)c2cc3ccccc3s2)cc1Cl [Compound 586, 4-Amino-N-(benzo[b]thiophen-2-yl)-3-chloro-N-(3,3,3-trifluoro-propyl)-benzenesulfonamide]	34.6 nM	100%	–
COC(=O)CCS(=O)(=O)N(CCCCC(F)(F)F)c1sc2ccccc2c1C [Compound 603, N-(3-Methyl-benzo[b]thiophen-2-yl)-N-(5,5,5-trifluoro-pentyl)-2-carbomethoxy-ethanesulfonamide]	10.3 nM	101%	–
O=C(O)c1ccc(S(=O)(=O)N(Cc2ccc(F)c(C(F)(F)F)c2)c2sc3ccccc3c2C2CC2)cc1 [Compound 675, N-(3-Cyclopropyl-benzo[b]thiophen-2-yl)-N-(4-fluoro-3-trifluoromethyl-benzyl)-4-carboxy-benzenesulfonamide]	2.4 nM	100%	–

Second part, led by results:

IC50	inhibition at 0.2 µM [1]	Compound	% Inh @ 0.5 (μM) (compound at 0.5 μM, canine TRPM8, icilin activation)
84.9 nM	74%	Cc1c(N(CCC2CC2)S(=O)(=O)c2nc3ccccc3n2C)sc2ccccc12 [Compound 745, N-(Cyclopropyl-ethyl)-N-(3-methyl-benzo[b]thiophen-2-yl)-1-methyl-1H-benzimidazole-2-sulfonamide]	–
14.1 nM	100%	CS(=O)(=O)Nc1ccc(S(=O)(=O)N(Cc2ccc(F)c(C(F)(F)F)c2)c2sc3ccccc3c2Br)cc1Br [Compound 661, 3-Bromo-N-(3-bromo-benzo[b]thiophen-2-yl)-N-(4-fluoro-3-trifluoromethyl-benzyl)-4-methanesulfonylamino-benzenesulfonamide]	–
46 nM	103%	O=S(=O)(c1ccc(-c2nnn[nH]2)cc1)N(CCC(F)(F)F)c1sc2ccccc2c1Cl [Compound 636, N-(3-Chloro-benzo[b]thiophen-2-yl)-N-(3,3,3-trifluoro-propyl)-4-(1H-tetrazol-5-yl)-benzenesulfonamide]	–
67 nM	81%	CCCCN(c1cc2ccccc2s1)S(=O)(=O)c1ccc(-c2noc(=O)[nH]2)cc1 [Compound 442, N-(Benzo[b]thiophen-2-yl)-N-(butyl)-4-(5-oxo-4,5-dihydro-[1,2,4]oxadiazol-3-yl)-benzenesulfonamide]	–
4.9 nM	105%	O=C(O)c1ccc(S(=O)(=O)N(CCCCC(F)(F)F)c2sc3ccccc3c2Cl)cc1 [Compound 538, N-(3-Chloro-benzo[b]thiophen-2-yl)-N-(5,5,5-trifluoro-pentyl)-4-carboxy-benzenesulfonamide]	–
345 nM	74%	CCCCN(c1sc2ccccc2c1C=O)S(=O)(=O)c1ccc(C(=O)OC)cc1 [Compound 419, N-(Butyl)-N-(3-formyl-benzo[b]thiophene-2-yl)-4-carbomethoxy-benzenesulfonamide]	–
–	94.4%	Cc1c(N(CCCCC(F)(F)F)S(=O)(=O)CC(F)(F)F)sc2ccccc12 [Compound 673, N-(3-Methyl-benzo[b]thiophen-2-yl)-N-(5,5,5-trifluoro-pentyl)-2,2,2-trifluoro-ethanesulfonamide]	–
